{
  "source": "ChEMBL document CHEMBL1122462",
  "about": "“Potential antiatherosclerotic agents. 4. [(Functionalized-alkyl)amino]benzoic acid analogues of cetaben” (1983)",
  "key": {"[1]": {"target": "T1, Sterol O-acyltransferase 1 (Rattus norvegicus) (UniProt O70536)", "T1 sequence (whole entry)": "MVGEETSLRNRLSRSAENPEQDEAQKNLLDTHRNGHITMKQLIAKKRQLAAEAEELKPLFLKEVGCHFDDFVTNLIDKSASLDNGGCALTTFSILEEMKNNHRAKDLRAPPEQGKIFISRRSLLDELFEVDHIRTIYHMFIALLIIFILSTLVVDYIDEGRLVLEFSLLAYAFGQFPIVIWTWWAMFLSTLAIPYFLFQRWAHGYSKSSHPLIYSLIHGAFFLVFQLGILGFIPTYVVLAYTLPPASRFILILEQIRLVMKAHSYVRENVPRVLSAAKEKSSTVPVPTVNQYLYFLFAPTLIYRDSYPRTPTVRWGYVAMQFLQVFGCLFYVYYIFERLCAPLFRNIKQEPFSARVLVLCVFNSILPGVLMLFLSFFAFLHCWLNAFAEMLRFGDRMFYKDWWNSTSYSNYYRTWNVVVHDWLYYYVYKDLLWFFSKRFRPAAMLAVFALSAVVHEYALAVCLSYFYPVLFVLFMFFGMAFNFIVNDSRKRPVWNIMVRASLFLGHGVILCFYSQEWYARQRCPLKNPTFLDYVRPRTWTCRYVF", "assay": "In vitro inhibitory activity against acyl coenzyme A:cholesterol acyltransferase", "design": "concentration or dose not given beside the values", "settings": "concentration not given here"}, "[2]": {"system": "Rattus norvegicus", "assay": "In vivo Triglyceride lowering activity at dose as 0.01 % of the diet.", "format": "functional"}, "[3]": {"system": "Rattus norvegicus", "assay": "In vivo Triglyceride lowering activity at dose as 0.10 % of the diet.", "format": "functional"}, "[4]": {"system": "Rattus norvegicus", "assay": "In vivo Sterol lowering activity at dose as 0.01 % of the diet.", "format": "functional"}, "[5]": {"system": "Rattus norvegicus", "assay": "In vivo Sterol lowering activity at dose as 0.03 % of the diet.", "format": "functional"}, "[6]": {"system": "Rattus norvegicus", "assay": "In vivo Triglyceride lowering activity at dose as 0.03 % of the diet.", "format": "functional"}, "[7]": {"system": "Rattus norvegicus", "assay": "In vivo Sterol lowering activity at dose as 0.10 % of the diet.", "format": "functional"}},
  "data": [
    {"smiles": "CCOC(=O)CCNc1ccc(C(=O)OCC)cc1", "values": [
      {"measurement": "inhibition", "setting": "[1]", "result": 28, "unit": "%"},
      {"measurement": "Diet", "setting": "[2]", "result": 109, "unit": "%"},
      {"measurement": "Diet", "setting": "[3]", "result": 103, "unit": "%"},
      {"measurement": "Diet", "setting": "[4]", "result": 97, "unit": "%"},
      {"measurement": "Diet", "setting": "[5]", "result": 100, "unit": "%"},
      {"measurement": "Diet", "setting": "[6]", "result": 98, "unit": "%"},
      {"measurement": "Diet", "setting": "[7]", "result": 94, "unit": "%"}
    ]},
    {"smiles": "O=C(O)CNc1ccc(C(=O)O)cc1", "values": [
      {"measurement": "inhibition", "setting": "[1]", "result": 18, "unit": "%"},
      {"measurement": "Diet", "setting": "[2]", "result": 90, "unit": "%"},
      {"measurement": "Diet", "setting": "[3]", "result": 106, "unit": "%"},
      {"measurement": "Diet", "setting": "[4]", "result": 89, "unit": "%"},
      {"measurement": "Diet", "setting": "[5]", "result": 87, "unit": "%"},
      {"measurement": "Diet", "setting": "[6]", "result": 93, "unit": "%"},
      {"measurement": "Diet", "setting": "[7]", "result": 98, "unit": "%"}
    ]},
    {"smiles": "CCCC(Nc1ccc(C(=O)OCC)cc1)C(=O)OCC", "note": "(configuration not stated)", "values": [
      {"measurement": "inhibition", "setting": "[1]", "result": 44, "unit": "%"},
      {"measurement": "Diet", "setting": "[2]", "result": 93, "unit": "%"},
      {"measurement": "Diet", "setting": "[3]", "result": 77, "unit": "%"},
      {"measurement": "Diet", "setting": "[4]", "result": 103, "unit": "%"},
      {"measurement": "Diet", "setting": "[5]", "result": 109, "unit": "%"},
      {"measurement": "Diet", "setting": "[6]", "result": 96, "unit": "%"},
      {"measurement": "Diet", "setting": "[7]", "result": 102, "unit": "%"}
    ]},
    {"smiles": "CCOC(=O)CCCCCNc1ccc(C(=O)OCC)cc1", "values": [
      {"measurement": "inhibition", "setting": "[1]", "result": 18, "unit": "%"},
      {"measurement": "Diet", "setting": "[2]", "result": 68, "unit": "%"},
      {"measurement": "Diet", "setting": "[3]", "result": 71, "unit": "%"},
      {"measurement": "Diet", "setting": "[4]", "result": 96, "unit": "%"},
      {"measurement": "Diet", "setting": "[5]", "result": 92, "unit": "%"},
      {"measurement": "Diet", "setting": "[6]", "result": 72, "unit": "%"},
      {"measurement": "Diet", "setting": "[7]", "result": 84, "unit": "%"}
    ]},
    {"smiles": "CCOC(=O)c1ccc(NC(=O)CCC(=O)OC)cc1", "values": [
      {"measurement": "inhibition", "setting": "[1]", "result": 2, "unit": "%"},
      {"measurement": "Diet", "setting": "[2]", "result": 99, "unit": "%"},
      {"measurement": "Diet", "setting": "[3]", "result": 114, "unit": "%"},
      {"measurement": "Diet", "setting": "[4]", "result": 86, "unit": "%"},
      {"measurement": "Diet", "setting": "[5]", "result": 99, "unit": "%"},
      {"measurement": "Diet", "setting": "[6]", "result": 92, "unit": "%"},
      {"measurement": "Diet", "setting": "[7]", "result": 97, "unit": "%"}
    ]},
    {"smiles": "O=C(O)CCCCCNc1ccc(C(=O)O)cc1", "values": [
      {"measurement": "inhibition", "setting": "[1]", "result": 4, "unit": "%"},
      {"measurement": "Diet", "setting": "[2]", "result": 85, "unit": "%"},
      {"measurement": "Diet", "setting": "[3]", "result": 102, "unit": "%"},
      {"measurement": "Diet", "setting": "[4]", "result": 92, "unit": "%"},
      {"measurement": "Diet", "setting": "[5]", "result": 100, "unit": "%"},
      {"measurement": "Diet", "setting": "[6]", "result": 91, "unit": "%"},
      {"measurement": "Diet", "setting": "[7]", "result": 105, "unit": "%"}
    ]}
  ]
}
